Measured values: patent publication US5066655A (priority 1989, dated 1991)

Assays:
[1] = target: T1, A1 receptors (Rattus norvegicus, UniProt P25099); experiment: Activity at A1 adenosine receptors (overall, fat cells and brain membranes); assay type: biochemical; settings: discussion, fat cell and brain data
T1 sequence (P25099 1-326): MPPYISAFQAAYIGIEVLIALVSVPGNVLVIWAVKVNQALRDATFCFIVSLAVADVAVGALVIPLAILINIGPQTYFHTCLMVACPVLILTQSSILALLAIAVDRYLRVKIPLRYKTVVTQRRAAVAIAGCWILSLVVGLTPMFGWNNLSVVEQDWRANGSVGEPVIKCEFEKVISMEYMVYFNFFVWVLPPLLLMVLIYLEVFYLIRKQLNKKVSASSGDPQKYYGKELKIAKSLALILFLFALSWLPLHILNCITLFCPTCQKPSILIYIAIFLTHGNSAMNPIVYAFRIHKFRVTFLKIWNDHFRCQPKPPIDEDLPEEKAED
Procedure: (§1) Human platelet, rat pheochromocytoma (PC12) cell, rat fat cell and rat cerebral cortex membranes were prepared as described (4,5,6). Adenylate cyclase activity and binding [^3 H]PIA to cerebral cortex membranes were determined essentially as described (4,5,6). KB values for the compounds were determined as described (4). […] EC50 and IC50 values for the agonists were obtained from the concentration-response curves by linear regression after logit-log transformation. KB values of the antagonists were calculated using the Schild equation KB =C/(CR-1), where C denotes the concentration of the competitor and CR the ratio of the EC50 and IC50 values in the presence and absence, respectively, of the competitor. IC50 of the compounds for inhibition of [^3 H]PIA binding to cerebral cortex membranes were transformed into Ki values as described (6).

[2] = tested on: A1 and A2 adenosine receptors; experiment: Activity at adenosine receptors, A1 versus A2 selectivity (overall); assay type: biochemical; settings: for receptor selectivity A1 versus A2: in words; for stereoselectivity: A1 and A2 receptors
Procedure: as §1

[3] = target: A2 receptors of human platelets (Homo sapiens, UniProt P29274); experiment: Antagonism of NECA-induced stimulation of adenylate cyclase activity of human platelet membranes; assay type: biochemical; settings: for antagonist potency at platelet A2 receptor: human platelet membranes, NECA-stimulated adenylate cyclase, result in words; for potency at platelet A2 receptor relative to PC12 A2 receptor: human platelets versus rat PC12 cells
Sequence of A2 receptors of human platelets (P29274 whole entry): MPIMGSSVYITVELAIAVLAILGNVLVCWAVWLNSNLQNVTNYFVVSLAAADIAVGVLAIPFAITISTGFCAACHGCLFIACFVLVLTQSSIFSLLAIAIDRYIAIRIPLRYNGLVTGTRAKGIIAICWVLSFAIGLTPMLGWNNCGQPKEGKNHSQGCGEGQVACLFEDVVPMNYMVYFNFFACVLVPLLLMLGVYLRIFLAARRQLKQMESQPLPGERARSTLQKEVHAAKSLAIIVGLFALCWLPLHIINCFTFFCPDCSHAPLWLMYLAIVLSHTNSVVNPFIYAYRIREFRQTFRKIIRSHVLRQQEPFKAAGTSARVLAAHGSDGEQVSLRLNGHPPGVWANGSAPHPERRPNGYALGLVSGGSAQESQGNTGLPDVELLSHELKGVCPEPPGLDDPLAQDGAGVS
Procedure: as §1
In these cells, A2 receptor-mediated stimulation of adenylate cyclase results in an inhibition of aggregation (5,7).

[4] = target: T2, A1 receptors of rat fat cells (Rattus norvegicus, UniProt P25099); experiment: Antagonism of R-PIA-induced inhibition of rat fat cell adenylate cyclase activity; assay type: biochemical; settings: rat fat cell membranes, result in words
T2 sequence (P25099 1-326): T1 sequence (P25099 1-326)
Procedure: as §1

[5] = tested on: A2 adenosine receptor (guinea pig taenia caecum); experiment: Antagonism of adenosine agonists in isolated guinea pig taenia caecum (contractile tone); settings: for antagonism of adenosine agonists in taenia caecum: guinea pig taenia caecum relaxation; for sensitization of the tissue: guinea pig taenia caecum, high concentrations
Procedure: Taenia from the guinea pig caecum were cut into lengths of 1.5-2 cm. The tissues were suspended in a 20 ml organ bath containing de Jalon's solution that was gassed with 95% O2 + 5% CO2 and maintained at 31° C. The resting tension was 1.5 g. The contractile response was measured isotonically.
(§2) The ability of the compounds to antagonize the effects of agonists was analyzed using modified Schild plots.

[6] = target: T3, A1 adenosine receptor (guinea pig atrium) (Cavia porcellus, UniProt P47745); experiment: Antagonism of adenosine agonists in isolated guinea pig left atrium (force of contraction); settings: guinea pig atria; for antagonism of adenosine agonists in atria: result in words
T3 construct: The left atria from male guinea pigs were isolated; from tissue; host or cells: left atria of male guinea pigs
T3 sequence (P47745 1-326): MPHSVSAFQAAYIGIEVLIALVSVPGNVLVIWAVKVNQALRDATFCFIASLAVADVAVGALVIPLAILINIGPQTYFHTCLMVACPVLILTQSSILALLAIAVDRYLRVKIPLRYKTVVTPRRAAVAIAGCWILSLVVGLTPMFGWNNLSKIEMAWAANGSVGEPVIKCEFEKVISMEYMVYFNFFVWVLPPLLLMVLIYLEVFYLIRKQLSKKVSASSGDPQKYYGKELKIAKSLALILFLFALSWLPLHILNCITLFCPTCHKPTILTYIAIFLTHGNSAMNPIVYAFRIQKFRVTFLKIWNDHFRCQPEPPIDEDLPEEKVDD
Procedure: The left atria from male guinea pigs were isolated, suspended between two punctate electrodes, and placed in a 20 ml organ bath that contained Krebs-Hensileit solution that was continuously gassed with 95% O2 + 5% CO2 and maintained at 31° C. The resting tension was one gram. Theatria were stimulated electrically at 1 hz, 1 ms duration pulses at supramaximal voltage. The force of contraction was recorded isometrically.
as §2

[7] = tested on: A2 receptors of PC12 cells; settings: cited from earlier work

Compound: Cn1cnc2c(NC3CCC3)ncnc21 [Example 3, N^6 -Cyclobutyl-9-MA]
- activity at A1 receptors, in words [1]: most potent of N^6 -substituted 9-methyladenines at A1 receptors
- receptor selectivity A1 versus A2 [2]: selective for receptors
- antagonist potency at platelet A2 receptor [3]: more potent than 9-methyladenine itself
- antagonist potency at A1 receptors of fat cells [4]: more potent than the parent compound 9-methyladenine

Compound: Cn1cnc2c(NC3CCCCC3)ncnc21 [Example 6, N^6 -Cyclohexyl-9-MA]
- activity at A1 receptors, in words [1]: most potent of N^6 -substituted 9-methyladenines at A1 receptors
- receptor selectivity A1 versus A2 [2]: selective for receptors
- antagonist potency at platelet A2 receptor [3]: more potent than 9-methyladenine itself
- antagonist potency at A1 receptors of fat cells [4]: more potent than the parent compound 9-methyladenine

Compound: CNc1ncnc2c1ncn2C [Example 7, N^6 -Methyl-9-MA]
- activity at A1 receptors, in words [1]: reduces activity
- antagonist potency at platelet A2 receptor [3]: much less potent than 9-methyladenine
- antagonist potency at A1 receptors of fat cells [4]: less potent than 9-methyladenine

Compound: CCC(CC)Nc1ncnc2c1ncn2C [Example 8, N^6-3-Pentyl-9-MA]
- antagonism of adenosine agonists in taenia caecum [5]: did not competitively antagonize the effects of adenosine agonists
- sensitization of the tissue [5]: some sensitization of the tissue
- antagonist potency at platelet A2 receptor [3]: more potent
- antagonist potency at platelet A2 receptor ([3]; listed as 3-pentyl-): enhance activity
- potency at platelet A2 receptor relative to PC12 A2 receptor [3]: more potent at the platelet A2 receptor than at the PC12 A2 receptor
- basal force of contraction in the atria [6]: increases in basal force of contraction
- antagonism of adenosine agonists in atria [6]: competitive antagonists
- antagonist potency at A1 receptors of fat cells [4]: more potent than the aprent compound

Compound: Cn1c(=O)c2[nH]c(-c3ccccc3)nc2n(C)c1=O [Example 8-PT, 8-phenyltheophylline, reference compound]
- antagonism of adenosine agonists in taenia caecum [5]: did antagonize the effects of agonists at low concentrations
- sensitization of the tissue [5]: sensitization effect is also observed
- receptor selectivity A1 versus A2 [2]: nonselective adenosine receptor antagonist

Compound: Cn1cnc2c(Nc3ccccc3)ncnc21 [Example 9, N^6 -Phenyl-9-MA]
- antagonist potency at platelet A2 receptor [3]: equipotent to 9-methyladenine
- potency at platelet A2 receptor relative to PC12 A2 receptor [3]: more potent at the platelet A2 receptor than at the PC12 A2 receptor
- antagonist potency at A1 receptors of fat cells [4]: more potent than 9-methyladenine in the fat cell

Compound: Cn1cnc2c(Nc3ccccc3F)ncnc21 [Example 10, N^6-2-Fluorophenyl-9-MA]
- antagonist potency at platelet A2 receptor [3]: increases potency
- antagonist potency at platelet A2 receptor ([3]; listed as 2-fluorophenyl-): enhance activity
- antagonist potency at A1 receptors of fat cells [4]: more potent than 9-methyladenine in the fat cell

Compound: Cn1cnc2c(NCc3ccccc3)ncnc21 [Example 11, N^6 -Benzyl-9-MA]
- activity at A1 receptors, in words [1]: modest activity
- antagonist potency at platelet A2 receptor [3]: less potent than 9-methyladenine

Compound: Cn1cnc2c(NCCc3ccccc3)ncnc21 [Example 12, N^6-2-Phenethyl-9-MA]
- antagonist potency at platelet A2 receptor [3]: less potent than 9-methyladenine
- antagonist potency at A1 receptors of fat cells [4]: much less potent

Compound: COc1cc(CCNc2ncnc3c2ncn3C)cc(OC)c1OC [Example 13]
- receptor selectivity A1 versus A2 [2]: selectivity for A2 receptors
- antagonist potency at platelet A2 receptor [3]: as potent as 9-methyladenine

Compound: Cn1cnc2c(NCCc3cccnc3)ncnc21 [Example 14, N^6-2-(3-Pyridylethyl)-9-MA]
- antagonist potency at platelet A2 receptor [3]: less potent than 9-methyladenine

Compound: Cn1cnc2c(NCCc3ccsc3)ncnc21 [Example 15, N^6-2-(3-Thienylethyl)-9-MA]
- antagonist potency at platelet A2 receptor [3]: somewhat more potent
- antagonist potency at platelet A2 receptor ([3]; listed as 2-(3 -thienylethyl)-): enhance activity
- antagonist potency at A1 receptors of fat cells [4]: more potent than 9-methyladenine itself in the fat cell

Compound: C[C@H](Cc1ccccc1)Nc1ncnc2c1ncn2C [Example 16, N^6 - -- R-1-Phenyl-2-propyl-9-MA]
- stereoselectivity [2]: exhibit stereoselectivity at both A1 and A2 receptors
- antagonist potency at platelet A2 receptor [3]: more potent than the S-isomer
- antagonist potency at platelet A2 receptor ([3]; listed as R-1-phenyl-2-propyl-): enhance activity
- antagonist potency at A1 receptors of fat cells [4]: more potent than the parent compound at A1 receptors of fat cells

Compound: C[C@@H](Cc1ccccc1)Nc1ncnc2c1ncn2C [Example 17, N^6 - -- S-1-Phenyl-2-propyl-9-MA]
- stereoselectivity [2]: exhibit stereoselectivity at both A1 and A2 receptors
- antagonist potency at A1 receptors of fat cells [4]: more potent than the parent compound at A1 receptors of fat cells

Compound: CCC(Cc1cccs1)Nc1ncnc2c1ncn2C (centres unmarked) [Example 23]
- basal force of contraction in the atria [6]: increases in basal force of contraction
- antagonism of adenosine agonists in atria [6]: competitive antagonists

Compound: OC[C@H]1O[C@@H](n2cnc3c(NC4CCCCC4)ncnc32)[C@H](O)[C@@H]1O [N^6 -cyclohexyl-]
- agonist potency at PC12 A2 receptors, in words [7]: more potent of the series

Compound: COc1cc(CCNc2ncnc3c2ncn3[C@@H]2O[C@H](CO)[C@@H](O)[C@H]2O)cc(OC)c1OC [N^6-2-(3,4,5-trimethoxyphenylethyl)-]
- agonist potency at PC12 A2 receptors, in words [7]: more potent of the series

Compound: OC[C@H]1O[C@@H](n2cnc3c(NCCc4cccnc4)ncnc32)[C@H](O)[C@@H]1O [N^6-2-(3-pyridylethyl)-]
- agonist potency at PC12 A2 receptors, in words [7]: more potent of the series

Compound: OC[C@H]1O[C@@H](n2cnc3c(NCCc4ccccc4)ncnc32)[C@H](O)[C@@H]1O [N^6-2-phenethyl-]
- agonist potency at PC12 A2 receptors, in words [7]: more potent of the series
